Measured values from PMC12631574, “Structure–activity relationships of hydrophobic small molecule irreversible inhibitors of tissue transglutaminase” (RSC Medicinal Chemistry, 2025).

Target: T1, tissue transglutaminase (TG2), C-terminal His-tag TG2 (Homo sapiens, UniProt P21980)
T1 construct: host or cells: Novagen Rosetta 2 (DE3) E. coli
T1 sequence (P21980 1-687): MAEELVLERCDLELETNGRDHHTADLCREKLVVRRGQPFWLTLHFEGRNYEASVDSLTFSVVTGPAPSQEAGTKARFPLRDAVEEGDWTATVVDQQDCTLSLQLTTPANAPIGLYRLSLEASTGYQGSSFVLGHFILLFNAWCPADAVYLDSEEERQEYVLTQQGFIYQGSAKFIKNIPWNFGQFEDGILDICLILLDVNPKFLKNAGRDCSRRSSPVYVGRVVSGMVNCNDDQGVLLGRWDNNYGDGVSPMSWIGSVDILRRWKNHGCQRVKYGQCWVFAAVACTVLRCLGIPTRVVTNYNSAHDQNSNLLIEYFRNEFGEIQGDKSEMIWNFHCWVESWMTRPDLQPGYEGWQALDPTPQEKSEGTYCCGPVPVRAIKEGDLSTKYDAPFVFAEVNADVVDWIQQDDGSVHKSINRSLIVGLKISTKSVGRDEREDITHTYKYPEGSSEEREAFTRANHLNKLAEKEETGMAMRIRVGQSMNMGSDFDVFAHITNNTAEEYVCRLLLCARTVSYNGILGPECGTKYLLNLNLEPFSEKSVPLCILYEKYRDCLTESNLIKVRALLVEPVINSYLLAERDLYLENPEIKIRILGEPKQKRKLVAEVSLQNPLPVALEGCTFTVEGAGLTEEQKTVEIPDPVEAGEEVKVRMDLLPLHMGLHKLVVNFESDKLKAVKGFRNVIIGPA
Assay: continuous AL5 hydrolysis assay of irreversible TG2 inhibition (kobs vs [I]/α)
Format: biochemical

[1] = irreversible inhibition, AL5 100 μM, pH 6.9, 25 °C, triplicate
[2] = supplement, kinetics data and fitting

Row | SMILES | kinact | KI (inactivation) [1] | KI (inactivation) [2] | kinact/KI [2]
1 | C=CC(=O)NCC(=O)N1CCN(C(=O)C2CC2)CC1 [Compound 6a, N-2-[4-[(Cyclopropanecarbonyl)-1-piperazinyl]-2-oxoethyl]propenamide] | 0.00593 s⁻¹ | 23.5 ± 6.5 µM | 23.5 ± 6.5 µM | 15.2 ± 4.6 × 103 M-1min-1
2 | C=CC(=O)NCC(=O)N1CCN(C(=O)C2CCC2)CC1 [Compound 6b, N-2-[4-[(Cyclobutanecarbonyl)-1-piperazinyl]-2-oxoethyl]propenamide] | 0.00842 s⁻¹ | 20.2 ± 3.5 µM | 20.2 ± 3.5 µM | 25.0 ± 4.7 × 103 M-1min-1
3 | C=CC(=O)NCC(=O)N1CCN(C(=O)C2CCCC2)CC1 [Compound 6c, N-2-[4-[(Cyclopentanecarbonyl)-1-piperazinyl]-2-oxoethyl]propenamide] | 0.00868 s⁻¹ | 13 ± 1.6 µM | 13 ± 1.6 µM | 40.0 ± 5.3 × 103 M-1min-1
4 | C=CC(=O)NCC(=O)N1CCN(C(=O)C2CCCCC2)CC1 [Compound 6d, N-2-[4-[(Cyclohexanecarbonyl)-1-piperazinyl]-2-oxoethyl]propenamide] | 0.0177 s⁻¹ | 7.1 ± 1.3 µM | 7.14 ± 1.34 µM | 149 ± 31 × 103 M-1min-1
5 | C=CC(=O)NCC(=O)N1CCN(C(=O)C2CCCCCC2)CC1 [Compound 6e, N-2-[4-[(Cycloheptanecarbonyl)-1-piperazinyl]-2-oxoethyl]propenamide] | 0.0099 s⁻¹ | 21.5 ± 11 µM | 21.5 ± 11 µM | 27.6 ± 16.1 × 103 M-1min-1
6 | C=CC(=O)NCC(=O)N1CCN(C(=O)c2ccccc2)CC1 [Compound 6f, N-2-[4-[(Benzoyl)-1-piperazinyl]-2-oxoethyl]propenamide] | 0.00827 s⁻¹ | 8.1 ± 2.5 µM | 8.12 ± 2.47 µM | 61.1 ± 20.0 × 103 M-1min-1
7 | C=CC(=O)NCC(=O)N1CCN(C(=O)c2ccccc2-c2ccccc2)CC1 [Compound 7a, N-2-[4-[((2-Biphenyl)carbonyl)-1-piperazinyl]-2-oxoethyl]propenamide] | 0.00958 s⁻¹ | 3.2 ± 1 µM | 3.23 ± 1.14 µM | 178.0 ± 68.6 × 103 M-1min-1
8 | C=CC(=O)NCC(=O)N1CCN(C(=O)c2cccc(-c3ccccc3)c2)CC1 [Compound 7b, N-2-[4-[((3-Biphenyl)carbonyl)-1-piperazinyl]-2-oxoethyl]propenamide] | 0.0118 s⁻¹ | 5.3 ± 1.4 µM | 5.29 ± 1.39 µM | 133.9 ± 38.4 × 103 M-1min-1
9 | C=CC(=O)NCC(=O)N1CCN(C(=O)c2ccc(-c3ccccc3)cc2)CC1 [Compound 7c, N-2-[4-[((4-Biphenyl)carbonyl)-1-piperazinyl]-2-oxoethyl]propenamide] | 0.0118 s⁻¹ | 41.1 ± 32.2 µM | 41.1 ± 32.3 µM | 17.2 ± 15.5 × 103 M-1min-1
10 | C=CC(=O)NCC(=O)N1CCN(C(=O)c2ccccc2-c2ccccc2C)CC1 [Compound 21a, N-2-[4-[((2′-Methyl-2-biphenyl)carbonyl)-1-piperazinyl]-2-oxoethyl]propenamide] | 0.00955 s⁻¹ | 4.8 ± 1 µM | 4.85 ± 1.02 µM | 118 ± 27 × 103 M-1min-1
11 | C=CC(=O)NCC(=O)N1CCN(C(=O)c2ccccc2-c2cccc(C)c2)CC1 [Compound 21b, N-2-[4-[((3′-Methyl-2-biphenyl)carbonyl)-1-piperazinyl]-2-oxoethyl]propenamide] | 0.00902 s⁻¹ | 2.6 ± 0.7 µM | 2.64 ± 0.72 µM | 205 ± 60 × 103 M-1min-1
12 | C=CC(=O)NCC(=O)N1CCN(C(=O)c2ccccc2-c2ccc(C)cc2)CC1 [Compound 21c, N-2-[4-[((4′-Methyl-2-biphenyl)carbonyl)-1-piperazinyl]-2-oxoethyl]propenamide] | 0.00807 s⁻¹ | 8.3 ± 2.1 µM | 8.28 ± 2.08 µM | 58.5 ± 16.2 × 103 M-1min-1
13 | C=CC(=O)NCC(=O)N1CCN(C(=O)c2cccc(-c3ccccc3C)c2)CC1 [Compound 21d, N-2-[4-[((2′-Methyl-3-biphenyl)carbonyl)-1-piperazinyl]-2-oxoethyl]propenamide] | 0.012 s⁻¹ | 1.1 ± 0.1 µM | 1.13 ± 0.099 µM | 636 ± 58 × 103 M-1min-1
14 | C=CC(=O)NCC(=O)N1CCN(C(=O)c2cccc(-c3cccc(C)c3)c2)CC1 [Compound 21e, N-2-[4-[((3′-Methyl-3-biphenyl)carbonyl)-1-piperazinyl]-2-oxoethyl]propenamide] | 0.0104 s⁻¹ | 4.4 ± 2.8 µM | 4.42 ± 2.83 µM | 141 ± 98 × 103 M-1min-1
15 | C=CC(=O)NCC(=O)N1CCN(C(=O)c2cccc(-c3ccc(C)cc3)c2)CC1 [Compound 21f, N-2-[4-[((4′-Methyl-3-biphenyl)carbonyl)-1-piperazinyl]-2-oxoethyl]propenamide] | 0.0092 s⁻¹ | 2.3 ± 0.6 µM | 2.29 ± 0.66 µM | 241 ± 74 × 103 M-1min-1
16 | C=CC(=O)NCC(=O)N1CCN(C(=O)c2ccc(-c3ccccc3C)cc2)CC1 [Compound 21g, N-2-[4-[((2′-Methyl-4-biphenyl)carbonyl)-1-piperazinyl]-2-oxoethyl]propenamide] | 0.0217 s⁻¹ | 54.1 ± 14.6 µM | 54.1 ± 14.6 µM | 24.1 ± 7.3 × 103 M-1min-1
17 | C=CC(=O)NCC(=O)N1CCN(C(=O)c2ccc(-c3cccc(C)c3)cc2)CC1 [Compound 21h, N-2-[4-[((3′-Methyl-4-biphenyl)carbonyl)-1-piperazinyl]-2-oxoethyl]propenamide] | 0.0148 s⁻¹ | 38.9 ± 17.7 µM | 38.9 ± 17.7 µM | 22.8 ± 11.7 × 103 M-1min-1
18 | C=CC(=O)NCC(=O)N1CCN(C(=O)c2ccccc2Cc2ccccc2)CC1 [Compound 22a, N-2-[4-[((2-Benzylphenyl)carbonyl)-1-piperazinyl]-2-oxoethyl]propenamide] | 0.0146 s⁻¹ | 14.2 ± 3.3 µM | 14.2 ± 3.3 µM | 61.3 ± 15.9 × 103 M-1min-1
19 | C=CC(=O)NCC(=O)N1CCN(C(=O)c2ccccc2Oc2ccccc2)CC1 [Compound 22b, N-2-[4-[((2-Phenoxyphenyl)carbonyl)-1-piperazinyl]-2-oxoethyl]propenamide] | 0.0143 s⁻¹ | 9.1 ± 0.8 µM | 9.06 ± 0.8 µM | 94.8 ± 9.0 × 103 M-1min-1
20 | C=CC(=O)NCC(=O)N1CCN(C(=O)c2ccccc2Nc2ccccc2)CC1 [Compound 22c, N-2-[4-[(((2-Phenylamino)phenyl)carbonyl)-1-piperazinyl]-2-oxoethyl]propenamide] | 0.0119 s⁻¹ | 6.4 ± 0.7 µM | 6.38 ± 0.7 µM | 112 ± 14 × 103 M-1min-1
21 | C=CC(=O)NCC(=O)N1CCN(C(=O)c2cccc(Cc3ccccc3)c2)CC1 [Compound 22d, N-2-[4-[((3-benzylphenyl)carbonyl)-1-piperazinyl]-2-oxoethyl]propenamide] | 0.0168 s⁻¹ | 8.8 ± 2.7 µM | 8.84 ± 2.72 µM | 114 ± 38 × 103 M-1min-1
22 | C=CC(=O)NCC(=O)N1CCN(C(=O)c2cccc(Oc3ccccc3)c2)CC1 [Compound 22e, N-2-[4-[((3-Phenoxyphenyl)carbonyl)-1-piperazinyl]-2-oxoethyl]propenamide] | 0.0223 s⁻¹ | 11.9 ± 4 µM | 11.9 ± 4 µM | 112 ± 41 × 103 M-1min-1
